The source of these data is ChEMBL document CHEMBL3797140, “Acridin-3,6-dialkyldithiourea hydrochlorides as new photosensitizers for photodynamic therapy of mouse leukemia cells” (Bioorg Med Chem, 2016).

pIC50: −log10 of the molar value.

The nature of data set [1]: Dark toxicity against mouse L1210 cells assessed as cell viability after 48 hrs by MTT assay. The format is cell-based.
A short description of data set [2]: Phototoxicity against mouse NIH/3T3 cells assessed as cell viability preincubated for 1 hr followed by 1.05 J/cm2 UV-A irradiation measured after 48 hrs by MTT assay. In kind it is cell-based. Particulars: NIH3T3, light or radiation study. (In general: Tetrazolium assays rely on reduction of a dye to a coloured formazan, in cell work by metabolically active cells.)

Data set [3] is described as follows: Dark toxicity against mouse NIH/3T3 cells assessed as cell viability after 48 hrs by MTT assay. The format is cell-based, NIH3T3.
Data set [4] relates to L1210. The data set can be described thus: Phototoxicity against mouse L1210 cells assessed as cell viability preincubated for 1 hr followed by 1.05 J/cm2 UV-A irradiation measured after 48 hrs by MTT assay. In kind it is functional, cell-based. Particulars: L1210, light or radiation study.

Regarding `CCCCNC(=S)Nc1ccc2cc3ccc(NC(=S)NCCCC)cc3nc2c1`, the IC50 (as a rule, the concentration that inhibits the measured activity by half) at 48 h was 6.6 µM in data set [1] and 32.7 µM in data set [3]. The values for the pIC50 in data set [2] and in data set [4] were 5.59 and 6.28, respectively.
`CCCCCNC(=S)Nc1ccc2cc3ccc(NC(=S)NCCCCC)cc3nc2c1`: the IC50 at 48 h in data set [1] amounted to 9.2 µM; in data set [3], 37.5 µM. In addition, the negative logarithm of the IC50 (pIC50) (usually −log10 of the IC50, conventionally taken in molar units) in data set [2] is 5.43; in data set [4], 6.22.
